Laboratory results published in ChEMBL document CHEMBL1158466, “Discovery of novel 2-aminobenzamide inhibitors of heat shock protein 90 as potent, selective and orally active antitumor agents” (J Med Chem, 2009).

Columns and labels:
[1] = Tmax in Swiss Webster mouse at 10 mg/kg, po; assay type: ADME, organism-based; set-up: dose 10 mg/kg, route oral; settings: in vivo
MDA-MB-231 = assay: Antiproliferative activity against human MDA-MB-231 cells after 72 to 144 hrs by cyquant DNA dye method; assay type: functional, cell-based
HCT-15 = assay: Antiproliferative activity against human HCT15 cells after 72 to 144 hrs by cyquant DNA dye method; assay type: functional, cell-based
[2] = Half life in Swiss Webster mouse at 10 mg/kg, po; assay type: ADME, organism-based; set-up: dose 10 mg/kg, route oral; settings: in vivo
[3] = AUC (infinity) in Swiss Webster mouse at 50 mg/kg, po; assay type: ADME, organism-based; set-up: time infinity, dose 50 mg/kg, route oral; settings: plasma
[4] = Apparent volume of distribution with respect to bioavailability in Swiss Webster mouse at 50 mg/kg, po; assay type: ADME, organism-based; settings: in vivo, read-out: Vc/F
K562 = assay: Antiproliferative activity against human K562 cells after 72 to 144 hrs by cyquant DNA dye method; assay type: functional, cell-based
[5] = Binding affinity to pig spleen Hsp90 ATPase pocket by Bradford assay; assay type: tissue-based, Sus scrofa
[6] = Half life in Swiss Webster mouse at 50 mg/kg, po; assay type: ADME, organism-based; set-up: dose 50 mg/kg, route oral; settings: in vivo
A-375 = assay: Antiproliferative activity against human A375 cells after 72 to 144 hrs by cyquant DNA dye method; assay type: functional, cell-based
Heat shock protein HSP90 [7] = molecular target: T1, Heat shock protein HSP90 (Homo sapiens, UniProt P07900+P08238); assay type: cell-based; settings: au565
Heat shock protein HSP90 [8] = molecular target: T1, Heat shock protein HSP90; settings: a-375
Description: Inhibition of Hsp90 in human A375 cells assessed as pS6 degradation after 24 hrs by high content screening

[9] = Cmax in Swiss Webster mouse at 50 mg/kg, po; assay type: ADME, organism-based; set-up: dose 50 mg/kg, route oral; settings: in vivo
NCI-H460 = assay: Antiproliferative activity against human NCI-H460 cells after 72 to 144 hrs by cyquant DNA dye method; assay type: functional, cell-based
[10] = Apparent volume of distribution with respect to bioavailability in Swiss Webster mouse at 10 mg/kg, po; assay type: ADME, organism-based; settings: in vivo, read-out: Vc/F
[11] = Cmax in Swiss Webster mouse at 10 mg/kg, po; assay type: ADME, organism-based; set-up: dose 10 mg/kg, route oral; settings: in vivo
[12] = Half life in Swiss Webster mouse at 25 mg/kg, po; assay type: ADME, organism-based; set-up: dose 25 mg/kg, route oral; settings: in vivo
[13] = Clearance in Swiss Webster mouse at 10 mg/kg, iv; settings: in vivo
Heat shock protein HSP90 [14] = molecular target: T1, Heat shock protein HSP90; settings: au565
Description: Inhibition of Hsp90 in human AU565 cells assessed as pERK degradation after 24 hrs by high content screening

HT-29 [15] = assay: Antitumor activity against human HT-29 cells xenografted nu/nu mouse assessed as tumor growth delay at 25 mg/kg, po administered 3 times a week for 3 weeks; assay type: functional
[16] = Half life in Swiss Webster mouse at 10 mg/kg, iv; assay type: ADME, organism-based; set-up: dose 10 mg/kg, route intravenous; settings: in vivo
SK-MEL-5 = assay: Antiproliferative activity against human SK-MEL-5 cells after 72 to 144 hrs by cyquant DNA dye method; assay type: functional, cell-based
[17] = Tmax in Swiss Webster mouse at 25 mg/kg, po; assay type: ADME, organism-based; set-up: dose 25 mg/kg, route oral; settings: in vivo
Mus musculus [18] = assay: Toxicity in nu/nu mouse assessed as mortality at 5 to 50 mg/kg, po; assay type: organism-based; set-up: dose 5-50 mg/kg, route oral; settings: in vivo
[19] = Apparent volume of distribution with respect to bioavailability in Swiss Webster mouse at 25 mg/kg, po; assay type: ADME, organism-based; settings: in vivo, read-out: Vc/F
Heat shock protein HSP90 [20] = molecular target: T1, Heat shock protein HSP90; settings: a-375; remark: listed apart in the source
Description: Inhibition of Hsp90 in human A375 cells assessed as Hsp70 induction after 24 hrs by high content screening

[21] = Tmax in Swiss Webster mouse at 50 mg/kg, po; assay type: ADME, organism-based; set-up: dose 50 mg/kg, route oral; settings: in vivo
Mus musculus [22] = assay: Apparent volume of distribution with respect to bioavailability in Swiss Webster mouse at 10 mg/kg, iv; assay type: ADME, organism-based; settings: in vivo
HT-29 [23] = assay: Antitumor activity against human HT-29 cells xenografted nu/nu mouse assessed as tumor growth delay at 50 mg/kg, po administered 3 times a week for 3 weeks; assay type: functional
[24] = Solubility at pH 4 to […]; assay type: physicochemical; settings: buffer
[25] = Cmax in Swiss Webster mouse at 25 mg/kg, po; assay type: ADME, organism-based; set-up: dose 25 mg/kg, route oral; settings: in vivo
[26] = AUC (infinity) in Swiss Webster mouse at 10 mg/kg, iv; assay type: ADME, organism-based; set-up: time infinity, dose 10 mg/kg, route intravenous; settings: plasma
[27] = Apparent oral clearance in Swiss Webster mouse at 10 mg/kg, po; assay type: ADME, organism-based; set-up: dose 10 mg/kg, route oral; settings: in vivo
[28] = Tmax in Swiss Webster mouse at 10 mg/kg, iv; assay type: ADME, organism-based; set-up: dose 10 mg/kg, route intravenous; settings: in vivo
Mus musculus [29] = assay: Toxicity in nu/nu mouse assessed as effect on body weight at 5 to 50 mg/kg, po; assay type: organism-based; set-up: dose 5-50 mg/kg, route oral; settings: in vivo
HT-29 [30] = assay: Antiproliferative activity against human HT-29 cells after 72 to 144 hrs by cyquant DNA dye method; assay type: functional, cell-based
[31] = Cmax in Swiss Webster mouse at 10 mg/kg, iv; assay type: ADME, organism-based; set-up: dose 10 mg/kg, route intravenous; settings: in vivo
SW-620 = assay: Antiproliferative activity against human SW620 cells after 72 to 144 hrs by cyquant DNA dye method; assay type: functional, cell-based
[32] = Apparent oral clearance in Swiss Webster mouse at 50 mg/kg, po; assay type: ADME, organism-based; set-up: dose 50 mg/kg, route oral; settings: in vivo
[33] = AUC (infinity) in Swiss Webster mouse at 10 mg/kg, po; assay type: ADME, organism-based; set-up: time infinity, dose 10 mg/kg, route oral; settings: plasma
MCF7 = assay: Antiproliferative activity against human MCF7 cells after 72 to 144 hrs by cyquant DNA dye method; assay type: functional, cell-based
[34] = Apparent oral clearance in Swiss Webster mouse at 25 mg/kg, po; assay type: ADME, organism-based; set-up: dose 25 mg/kg, route oral; settings: in vivo
[35] = AUC (infinity) in Swiss Webster mouse at 25 mg/kg, po; assay type: ADME, organism-based; set-up: time infinity, dose 25 mg/kg, route oral; settings: plasma
PC-3 = assay: Antiproliferative activity against human PC3 cells after 72 to 144 hrs by cyquant DNA dye method; assay type: functional, cell-based
HT-29 [36] = assay: Antitumor activity against human HT-29 cells xenografted nu/nu mouse assessed as median time for tumor to reach end point at 50 mg/kg, po administered 3 times a week for 3 weeks; assay type: functional
LNCaP = assay: Antiproliferative activity against human LNCAP cells after 72 to 144 hrs by cyquant DNA dye method; assay type: functional, cell-based

CC1(C)CC(=O)c2c(C(F)(F)F)nn(-c3ccc(C(N)=O)c(N[C@H]4CC[C@H](OC(=O)CN)CC4)c3)c2C1.CS(=O)(=O)O
Tmax [1]: 1 h | IC50 (MDA-MB-231): 0.038 µM | IC50 (HCT-15): 0.19 µM | half-life [2]: 2.5 h | AUC(0-inf) [3]: 25200 ng·h/mL | Vd/F [4]: 9.55 L/kg | IC50 (K562): 0.023 µM | Kd [5]: 0.041 µM | half-life [6]: 3.3 h | IC50 (A-375): 0.051 µM | IC50 (Heat shock protein HSP90 [7]): 0.005 µM | IC50 (Heat shock protein HSP90 [8]): 0.061 µM | Cmax [9]: 4020 ng/mL | IC50 (NCI-H460): 0.215 µM | Vd/F [10]: 8.93 L/kg | Cmax [11]: 747 ng/mL | half-life [12]: 2.9 h | clearance [13]: 34.2 mL/min/kg | IC50 (Heat shock protein HSP90 [14]): 0.011 µM | Activity (HT-29 [15]): 14% | half-life [16]: 2.6 h | IC50 (SK-MEL-5): 0.025 µM | Tmax [17]: 1 h | Activity (Mus musculus [18]): Non-toxic | Vd/F [19]: 9.59 L/kg | IC50 (Heat shock protein HSP90 [20]): 0.013 µM | Tmax [21]: 2 h | Vc/F (Mus musculus [22]): 7.846 L/kg | Activity (HT-29 [23]): 67% | solubility [24]: 1000 µg/mL | Cmax [25]: 2150 ng/mL | AUC(0-inf) [26]: 4870 ng·h/mL | CL/F [27]: 42 mL/min/kg | Tmax [28]: 4.98 min | Activity (Mus musculus [29]): Non-toxic | IC50 (HT-29 [30]): 0.032 µM | Cmax [31]: 4460 ng/mL | IC50 (SW-620): 0.019 µM | CL/F [32]: 33.1 mL/min/kg | AUC(0-inf) [33]: 3970 ng·h/mL | IC50 (MCF7): 0.016 µM | CL/F [34]: 37.9 mL/min/kg | AUC(0-inf) [35]: 11000 ng·h/mL | IC50 (PC-3): 0.114 µM | Activity (HT-29 [36]): 43.2 days | IC50 (LNCaP): 0.031 µM
